These results are taken from publication PMC7048932, “Examining sterically demanding lysine analogs for histone lysine methyltransferase catalysis” (Scientific Reports, 2020).

Assay [1] concerns the target T1, GLP (Homo sapiens, UniProt Q9H9B1).
T1 construct: His6 (N); made in house; host or cells: E. coli BL21 (DE3)pLysS-rosetta
T1 sequence (Q9H9B1 1-1298): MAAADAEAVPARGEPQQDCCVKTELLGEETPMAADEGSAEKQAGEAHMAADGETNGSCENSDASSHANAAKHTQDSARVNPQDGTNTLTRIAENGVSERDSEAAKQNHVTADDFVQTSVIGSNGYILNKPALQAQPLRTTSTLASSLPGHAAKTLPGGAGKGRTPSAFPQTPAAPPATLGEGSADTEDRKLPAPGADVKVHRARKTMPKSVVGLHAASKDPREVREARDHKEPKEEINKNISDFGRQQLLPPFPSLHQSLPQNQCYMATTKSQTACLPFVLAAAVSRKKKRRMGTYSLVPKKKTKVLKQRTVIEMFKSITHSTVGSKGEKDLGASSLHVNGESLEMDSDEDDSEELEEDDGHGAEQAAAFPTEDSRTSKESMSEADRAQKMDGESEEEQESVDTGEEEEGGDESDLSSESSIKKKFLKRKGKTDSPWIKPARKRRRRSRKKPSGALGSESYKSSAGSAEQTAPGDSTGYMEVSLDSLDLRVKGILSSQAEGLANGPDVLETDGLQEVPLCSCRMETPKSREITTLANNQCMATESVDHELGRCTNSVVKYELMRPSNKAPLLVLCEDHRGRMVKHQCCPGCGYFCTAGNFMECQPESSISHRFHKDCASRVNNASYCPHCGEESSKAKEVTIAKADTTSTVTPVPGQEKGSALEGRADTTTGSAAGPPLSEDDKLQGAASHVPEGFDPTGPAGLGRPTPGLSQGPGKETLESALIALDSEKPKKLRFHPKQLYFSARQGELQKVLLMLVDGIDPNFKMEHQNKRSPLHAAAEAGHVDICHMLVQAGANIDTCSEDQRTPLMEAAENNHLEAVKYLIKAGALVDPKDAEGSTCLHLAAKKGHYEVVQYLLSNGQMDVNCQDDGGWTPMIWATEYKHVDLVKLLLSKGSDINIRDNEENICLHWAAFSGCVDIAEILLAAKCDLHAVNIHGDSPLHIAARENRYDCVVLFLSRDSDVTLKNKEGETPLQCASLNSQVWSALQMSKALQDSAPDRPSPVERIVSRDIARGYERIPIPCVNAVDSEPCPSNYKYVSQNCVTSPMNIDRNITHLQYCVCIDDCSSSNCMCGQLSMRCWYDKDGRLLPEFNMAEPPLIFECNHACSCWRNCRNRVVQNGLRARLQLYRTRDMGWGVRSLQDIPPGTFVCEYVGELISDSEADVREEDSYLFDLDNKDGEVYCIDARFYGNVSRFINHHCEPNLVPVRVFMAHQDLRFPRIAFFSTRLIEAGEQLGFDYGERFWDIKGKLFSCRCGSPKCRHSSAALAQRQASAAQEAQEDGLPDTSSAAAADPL
Put plainly: NMR assay of GLP-catalyzed methylation of H3K9 peptides. It counts as biochemical. Particulars: peptide 400 µM, GLP 8 µM, SAM 2 mM, 50 mM Tris-d11.HCl pD 8.0, 1 h, 37 °C.

Assay [2] concerns the target T1, GLP. Put plainly: MALDI-TOF MS methylation assay of H3K9 peptides with GLP. Type of assay: biochemical. Particulars: peptide 100 µM, 37 °C. Here is the method: MALDI-MS methyltransferases activity experiments were performed using a Bruker instrument in the reflectron positive mode. For regular methyltransferase standard conditions experiment which carried out in 30 µL total volume, the mixture contains peptide (100 µM), SAM (200 µM), SETD8 or SETD7 (2 µM), in assay buffer 50 mM Tris at optimal pH 8.0. In case of G9a and GLP, similar conditions were used, except (500 µM) of SAM was added to the reaction mixture. […] A 5 µL aliquot of the solution was mixed with 5 µL of MeOH, after which 5 µL of this mixture was mixed with 5 µL of α-cyano-4-hydroxycinamic acid matrix (CHCA, 5 mg/mL in 125:125 µL acetonitrile/water). The spots were placed on a stainless steel MALDI plate (MS 96 target ground steel BC of Bruker, Germany). The mass corresponding to one monomethylation observed as +14 Da, dimethylation observed as +28 Da and trimethylation observed as +42 Da. The enzymatic activity was determined by taking the peak areas of each methylation state, including all isotopes and adducts, and was annotated using FlexAnalysis software (Bruker Daltonics, Germany). […] Methylated peptide substrates were repeated five times and the unmethylated substrates were triplicated. Sequences of the examined peptides are given in (Supplementary Table 1).

[3] abbreviates: GLP 10 µM, SAM 1 mM, 5 h, MALDI-MS.

Take ARTKQTAR(Kba9)STGGKA [H3Kba9]: the “GLP-catalyzed methylation by 1H NMR / 1H-13C HSQC, result in words” value in assay [1] was “not methylated”. Also, the “GLP-catalyzed methylation, result in words” value in assay [2] (GLP 2 µM, SAM 500 µM, 1 h, MALDI-TOF MS) is listed as “traces detected”. For the same substance, in assay [2] (setting [3]), the “GLP-catalyzed methylation, result in words, increased GLP/SAM” value is reported as “monomethylation” and the “GLP-catalyzed monomethylation, increased GLP/SAM” value was found to be 55%.
